Assay results from patent US11130756B2, “[1,2,4]Triazolo[4,3-A]pyridinyl substituted indole compounds” (BRISTOL-MYERS SQUIBB COMPANY, priority 2017, dated 2021).

Key:
Assay type in all cases: cell-based
human TLR7 = molecular target: T1, human TLR7 (Homo sapiens, UniProt Q9NYK1); experiment: TLR7 inhibition reporter assay (HEK-Blue, SEAP); conditions: HEK-Blue cells overexpressing human TLR7, gardiquimod 7.5 μM, 22 hour incubation
T1 construct: host or cells: HEK-Blue cells
T1 sequence (Q9NYK1 27-1049): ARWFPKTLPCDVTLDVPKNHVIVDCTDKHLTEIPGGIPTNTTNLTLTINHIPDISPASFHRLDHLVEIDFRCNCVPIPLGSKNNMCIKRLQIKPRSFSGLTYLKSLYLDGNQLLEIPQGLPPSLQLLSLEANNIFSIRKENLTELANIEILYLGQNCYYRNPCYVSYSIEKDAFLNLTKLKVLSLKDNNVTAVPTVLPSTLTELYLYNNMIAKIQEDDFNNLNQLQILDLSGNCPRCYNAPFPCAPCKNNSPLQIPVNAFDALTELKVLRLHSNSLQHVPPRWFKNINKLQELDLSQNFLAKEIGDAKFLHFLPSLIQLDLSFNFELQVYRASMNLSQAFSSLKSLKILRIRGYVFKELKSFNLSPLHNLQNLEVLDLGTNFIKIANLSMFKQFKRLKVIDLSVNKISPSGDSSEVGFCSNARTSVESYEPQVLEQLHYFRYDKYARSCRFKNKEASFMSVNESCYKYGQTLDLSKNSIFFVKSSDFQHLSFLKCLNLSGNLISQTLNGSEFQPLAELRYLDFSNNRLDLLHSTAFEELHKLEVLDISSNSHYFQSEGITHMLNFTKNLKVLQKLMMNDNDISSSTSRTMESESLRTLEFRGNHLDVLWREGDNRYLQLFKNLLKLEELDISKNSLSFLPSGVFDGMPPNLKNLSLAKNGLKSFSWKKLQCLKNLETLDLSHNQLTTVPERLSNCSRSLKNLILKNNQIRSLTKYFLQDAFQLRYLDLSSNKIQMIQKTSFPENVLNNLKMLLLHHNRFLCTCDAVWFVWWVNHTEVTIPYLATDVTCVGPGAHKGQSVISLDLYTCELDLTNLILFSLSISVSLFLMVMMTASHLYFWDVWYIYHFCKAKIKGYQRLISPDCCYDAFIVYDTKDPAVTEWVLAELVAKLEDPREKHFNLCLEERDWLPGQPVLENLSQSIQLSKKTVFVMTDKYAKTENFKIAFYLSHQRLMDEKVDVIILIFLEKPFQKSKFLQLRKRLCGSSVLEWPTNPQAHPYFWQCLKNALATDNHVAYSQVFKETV
Procedure: (§1) TLR7/8/9 Inhibition Reporter Assays
(§2) HEK-Blue™-cells (Invivogen) overexpressing human TLR7, TLR8 or TLR9 receptors were used for screening inhibitors of these receptors using an inducible SEAP (secreted embryonic alkaline phosphatase) reporter gene under the control of the IFN-β minimal promoter fused to five NF-κB and AP-1-binding sites. Briefly, cells are seeded into Greiner 384 well plates (15000 cells per well for TLR7, 20,000 for TLR8 and 25,000 for TLR9) and then treated with test compounds in DMSO to yield a final dose response concentration range of 0.05 nM-50 μM. After a 30 minute compound pre-treatment at room temperature, the cells are then stimulated with a TLR7 ligand (gardiquimod at a final concentration of 7.5 μM), TLR8 ligand (R848 at a final concentration of 15.9 μM) or TLR9 ligand (ODN2006 at a final concentration of 5 nM) to activate NF-κB and AP-1 which induce the production of SEAP. After a 22 hour incubation at 37° C., 5% CO2, SEAP levels are determined with the addition of HEK-Blue™ Detection reagent (Invivogen), a cell culture medium that allows for detection of SEAP, according to manufacturer's specifications. The percent inhibition is determined as the % reduction in the HEK-Blue signal present in wells treated with agonist plus DMSO alone compared to wells treated with a known inhibitor.

human TLR8 = molecular target: T2, human TLR8 (Homo sapiens, UniProt Q9NR97); experiment: TLR8 inhibition reporter assay (HEK-Blue, SEAP); conditions: HEK-Blue cells overexpressing human TLR8, R848 15.9 μM, 22 hour incubation
T2 construct: host or cells: HEK-Blue cells
T2 sequence (Q9NR97 27-1041): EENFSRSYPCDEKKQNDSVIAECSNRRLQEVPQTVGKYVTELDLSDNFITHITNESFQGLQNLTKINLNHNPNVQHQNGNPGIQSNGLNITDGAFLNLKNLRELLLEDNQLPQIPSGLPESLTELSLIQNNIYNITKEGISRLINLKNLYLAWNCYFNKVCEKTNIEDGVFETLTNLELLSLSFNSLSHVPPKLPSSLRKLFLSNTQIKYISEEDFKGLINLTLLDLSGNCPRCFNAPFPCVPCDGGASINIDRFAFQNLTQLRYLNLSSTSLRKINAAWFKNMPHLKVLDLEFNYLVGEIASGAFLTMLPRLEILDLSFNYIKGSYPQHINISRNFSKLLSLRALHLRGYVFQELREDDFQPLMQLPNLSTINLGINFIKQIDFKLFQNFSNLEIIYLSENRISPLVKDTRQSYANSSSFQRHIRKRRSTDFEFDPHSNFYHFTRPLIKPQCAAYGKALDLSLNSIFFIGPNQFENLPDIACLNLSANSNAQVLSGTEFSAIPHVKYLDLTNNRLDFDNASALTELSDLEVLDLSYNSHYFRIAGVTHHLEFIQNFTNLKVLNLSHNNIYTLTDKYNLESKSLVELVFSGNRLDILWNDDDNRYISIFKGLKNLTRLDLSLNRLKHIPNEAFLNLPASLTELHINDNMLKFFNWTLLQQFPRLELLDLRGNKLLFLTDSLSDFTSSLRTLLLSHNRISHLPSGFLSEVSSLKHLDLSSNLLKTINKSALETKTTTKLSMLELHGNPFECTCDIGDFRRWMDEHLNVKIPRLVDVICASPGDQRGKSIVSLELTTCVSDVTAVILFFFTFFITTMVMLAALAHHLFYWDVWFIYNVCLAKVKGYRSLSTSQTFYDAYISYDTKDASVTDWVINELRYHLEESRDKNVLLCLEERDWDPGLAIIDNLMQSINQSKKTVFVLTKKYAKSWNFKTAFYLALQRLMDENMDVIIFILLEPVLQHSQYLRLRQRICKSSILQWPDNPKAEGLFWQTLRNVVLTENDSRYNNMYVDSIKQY
Procedure: as §1, §2

human TLR9 = molecular target: T3, human TLR9 (Homo sapiens, UniProt Q9NR96); experiment: TLR9 inhibition reporter assay (HEK-Blue, SEAP); conditions: HEK-Blue cells overexpressing human TLR9, ODN2006 5 nM, 22 hour incubation
T3 construct: host or cells: HEK-Blue cells
T3 sequence (Q9NR96 26-1032): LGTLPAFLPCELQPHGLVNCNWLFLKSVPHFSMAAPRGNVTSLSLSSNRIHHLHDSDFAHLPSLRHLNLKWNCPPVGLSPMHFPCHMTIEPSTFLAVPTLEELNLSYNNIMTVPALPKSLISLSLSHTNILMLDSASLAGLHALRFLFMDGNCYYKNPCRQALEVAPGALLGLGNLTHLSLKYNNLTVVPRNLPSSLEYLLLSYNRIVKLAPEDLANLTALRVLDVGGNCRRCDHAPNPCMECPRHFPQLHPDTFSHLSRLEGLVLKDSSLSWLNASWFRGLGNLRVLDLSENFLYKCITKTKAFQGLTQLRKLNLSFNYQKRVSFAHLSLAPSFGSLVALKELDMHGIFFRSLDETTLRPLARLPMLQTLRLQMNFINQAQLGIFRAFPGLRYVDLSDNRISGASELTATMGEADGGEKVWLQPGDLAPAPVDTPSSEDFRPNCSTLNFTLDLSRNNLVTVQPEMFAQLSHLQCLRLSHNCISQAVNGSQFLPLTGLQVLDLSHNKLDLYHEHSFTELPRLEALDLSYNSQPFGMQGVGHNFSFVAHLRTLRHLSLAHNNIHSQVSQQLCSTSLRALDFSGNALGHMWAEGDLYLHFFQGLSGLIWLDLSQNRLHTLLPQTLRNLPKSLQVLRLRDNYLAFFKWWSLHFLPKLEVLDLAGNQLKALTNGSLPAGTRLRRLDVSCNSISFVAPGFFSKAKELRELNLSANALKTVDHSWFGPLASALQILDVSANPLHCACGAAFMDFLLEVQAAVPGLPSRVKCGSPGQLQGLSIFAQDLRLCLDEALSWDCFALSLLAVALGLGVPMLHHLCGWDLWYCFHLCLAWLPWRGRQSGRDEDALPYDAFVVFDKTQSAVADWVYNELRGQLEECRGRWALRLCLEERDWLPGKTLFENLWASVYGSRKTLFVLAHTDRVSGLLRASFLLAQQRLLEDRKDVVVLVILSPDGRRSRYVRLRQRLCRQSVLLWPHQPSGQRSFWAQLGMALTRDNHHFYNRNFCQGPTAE
Procedure: as §1, §2

Structure (SMILES)	IC50 (human TLR7) [nM]	IC50 (human TLR8) [nM]	IC50 (human TLR9) [nM]
Cc1c(-c2[nH]c3ccc(C4C[C@H]5CC[C@@H](C4)N5CC(=O)N(C)C)cc3c2C(C)C)cn2cnnc2c1C (single isomer, unassigned) [Example 119]	12.9	103	1020
Cc1c(-c2[nH]c3ccc(C4C[C@H]5CC[C@@H](C4)N5CC4(C)COC4)cc3c2C(C)C)cn2cnnc2c1C (single isomer, unassigned) [Example 120]	6.7	45.9	3800
Cc1c(-c2[nH]c3ccc(C4C[C@H]5CC[C@@H](C4)N5CC4(C)COC4)cc3c2C(C)C)cn2cnnc2c1C (single isomer, unassigned) [Example 121]	3.2	47.6	4840
Cc1c(-c2[nH]c3ccc(C4C[C@H]5CC[C@@H](C4)N5C4COC4)cc3c2C(C)C)cn2cnnc2c1C (single isomer, unassigned) [Example 122]	2.3	98.9	5940
Cc1c(-c2[nH]c3ccc(C4C[C@H]5CC[C@@H](C4)N5C4COC4)cc3c2C(C)C)cn2cnnc2c1C (single isomer, unassigned) [Example 123]	7.6	151	8480
CC(C)c1c(-c2ccc3nncn3c2)[nH]c2ccc(C3CCNCC3)cc12 [Example 1, 6-(3-isopropyl-5-(piperidin-4-yl)-1H-indol-2-yl)-[1,2,4]triazolo[4,3-a]pyridine]	22.8	140	902
Cc1cc(-c2[nH]c3ccc(C4CCNCC4)cc3c2C(C)C)cn2cnnc12 [Example 2, 6-(3-isopropyl-5-(piperidin-4-yl)-1H-indol-2-yl)-8-methyl-[1,2,4]triazolo[4,3-a]pyridine]	4.8	12.5	528
Cc1nnc2ccc(-c3[nH]c4ccc(C5CCNCC5)cc4c3C(C)C)cn12 [Example 3, 6-(3-isopropyl-5-(piperidin-4-yl)-1H-indol-2-yl)-3-methyl-[1,2,4]triazolo[4,3-a]pyridine]	27.1	40.7	340
Cc1cc2nncn2cc1-c1[nH]c2ccc(C3CCNCC3)cc2c1C(C)C [Example 4, 6-(3-isopropyl-5-(piperidin-4-yl)-1H-indol-2-yl)-7-methyl-[1,2,4]triazolo[4,3-a]pyridine]	56.7	2340	2430
Cc1c(-c2[nH]c3ccc(C4CCNCC4)cc3c2C(C)C)ccc2nncn12 [Example 5, 6-(3-isopropyl-5-(piperidin-4-yl)-1H-indol-2-yl)-5-methyl-[1,2,4]triazolo[4,3-a]pyridine]	154	133	1240
Cc1cc(-c2[nH]c3ccc(C4CCNCC4)cc3c2C(C)C)cn2c(C)nnc12 [Example 6, 6-(3-isopropyl-5-(piperidin-4-yl)-1H-indol-2-yl)-3,8-dimethyl-[1,2,4]triazolo[4,3-a]pyridine]	5.2	18.9	486
COCc1nnc2ccc(-c3[nH]c4ccc(C5CCNCC5)cc4c3C(C)C)cn12 [Example 7, 6-(3-isopropyl-5-(piperidin-4-yl)-1H-indol-2-yl)-3-(methoxymethyl)-[1,2,4]triazolo[4,3-a]pyridine]	156	1230	3230
Cc1c(-c2[nH]c3ccc(C4CCNCC4)cc3c2C(C)C)cn2cnnc2c1C [Example 8, 6-(3-isopropyl-5-(piperidin-4-yl)-1H-indol-2-yl)-7,8-dimethyl-[1,2,4]triazolo[4,3-a] pyridine]	5.2	29.6	1880
Cc1cc(-c2[nH]c3ccc(C4CCNCC4)cc3c2C(C)C)c(C)n2cnnc12 [Example 9, 6-(3-isopropyl-5-(piperidin-4-yl)-1H-indol-2-yl)-5,8-dimethyl-[1,2,4] triazolo[4,3-a]pyridine]	31	11.5	746
Cc1c(-c2[nH]c3ccc(C4CCNCC4)cc3c2C(C)C)cn2cnnc2c1Cl [Example 10, 8-chloro-6-(3-isopropyl-5-(piperidin-4-yl)-1H-indol-2-yl)-7-methyl-[1,2,4]triazolo[4,3-a]pyridine]	4.6	107	3120
